Experimental findings from publication PMC11015056 (ACS Infectious Diseases, 2024) are described below.

For orientation: IC50 means the concentration that gives 50% inhibition.

Structures are written as SMILES.

Assay [1] deals with WT N. gonorrhoeae gyrase (Neisseria gonorrhoeae, UniProt P22118+P48371). Briefly: Gyrase-mediated DNA cleavage, WT gyrase. The note with it: GyrA WT; induced by 8-methyl-2,4-quinazolinedione.
In assay [2] the target is T1, GyrA^S91F/D95G N. gonorrhoeae gyrase (Neisseria gonorrhoeae, UniProt P22118+P48371, D95G/S91F).
T1 construct: His-tag; purchased GenScript
T1 sequence (P48371 whole entry, looked up, stated change not applied): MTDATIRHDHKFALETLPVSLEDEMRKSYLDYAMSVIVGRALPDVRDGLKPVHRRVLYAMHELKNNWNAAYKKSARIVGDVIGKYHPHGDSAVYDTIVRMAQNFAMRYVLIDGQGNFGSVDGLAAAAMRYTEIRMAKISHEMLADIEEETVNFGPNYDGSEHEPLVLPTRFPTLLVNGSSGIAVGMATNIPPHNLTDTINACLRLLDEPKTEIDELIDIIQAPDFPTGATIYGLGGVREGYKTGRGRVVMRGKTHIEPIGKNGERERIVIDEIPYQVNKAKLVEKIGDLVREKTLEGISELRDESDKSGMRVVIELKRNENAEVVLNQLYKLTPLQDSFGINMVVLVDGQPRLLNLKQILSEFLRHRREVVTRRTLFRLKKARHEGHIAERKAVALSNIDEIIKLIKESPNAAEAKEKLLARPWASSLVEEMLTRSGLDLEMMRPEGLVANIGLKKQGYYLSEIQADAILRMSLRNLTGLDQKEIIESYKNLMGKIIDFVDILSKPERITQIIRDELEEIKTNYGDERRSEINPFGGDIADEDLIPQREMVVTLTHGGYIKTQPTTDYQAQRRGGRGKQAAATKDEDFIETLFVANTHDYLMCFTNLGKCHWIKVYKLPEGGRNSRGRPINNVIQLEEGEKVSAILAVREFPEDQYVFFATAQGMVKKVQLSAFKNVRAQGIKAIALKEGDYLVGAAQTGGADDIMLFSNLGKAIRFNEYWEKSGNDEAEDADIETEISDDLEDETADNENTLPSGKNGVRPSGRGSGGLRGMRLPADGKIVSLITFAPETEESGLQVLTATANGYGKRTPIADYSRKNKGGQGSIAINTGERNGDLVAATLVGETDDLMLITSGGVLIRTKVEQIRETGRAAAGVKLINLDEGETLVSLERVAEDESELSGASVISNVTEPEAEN
T1 sequence (P22118 whole entry, stated change not applied): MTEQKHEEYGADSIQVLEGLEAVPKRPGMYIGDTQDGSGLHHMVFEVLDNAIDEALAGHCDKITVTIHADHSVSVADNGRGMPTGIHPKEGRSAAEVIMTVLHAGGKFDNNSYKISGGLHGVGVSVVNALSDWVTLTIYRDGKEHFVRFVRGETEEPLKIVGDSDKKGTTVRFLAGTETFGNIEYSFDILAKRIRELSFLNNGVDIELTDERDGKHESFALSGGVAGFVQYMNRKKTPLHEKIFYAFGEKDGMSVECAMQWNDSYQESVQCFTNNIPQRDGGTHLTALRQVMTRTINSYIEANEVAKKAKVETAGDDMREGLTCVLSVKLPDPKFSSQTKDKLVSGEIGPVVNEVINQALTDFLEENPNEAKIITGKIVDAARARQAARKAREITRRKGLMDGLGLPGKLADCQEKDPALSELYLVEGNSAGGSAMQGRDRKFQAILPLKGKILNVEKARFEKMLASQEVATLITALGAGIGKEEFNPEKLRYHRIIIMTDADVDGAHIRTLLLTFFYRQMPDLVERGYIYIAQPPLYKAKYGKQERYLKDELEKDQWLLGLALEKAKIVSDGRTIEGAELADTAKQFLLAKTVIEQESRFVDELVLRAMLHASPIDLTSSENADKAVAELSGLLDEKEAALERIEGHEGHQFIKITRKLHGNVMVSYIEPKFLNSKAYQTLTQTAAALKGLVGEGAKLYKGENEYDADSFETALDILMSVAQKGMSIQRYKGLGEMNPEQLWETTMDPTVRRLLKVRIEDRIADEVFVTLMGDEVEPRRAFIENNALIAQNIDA
Briefly: Gyrase-catalyzed DNA supercoiling, GyrA S91F/D95G gyrase. To be noted: ± standard error of the mean, read-out: IC50, inhibition of DNA supercoiling. In kind it is biochemical.

Assay [3] concerns the target T2, ParC^S87N/E91G N. gonorrhoeae topoisomerase IV (Neisseria gonorrhoeae, UniProt P48374, E91G/S87N).
T2 sequence (P48374 1-768 S87N/E91G): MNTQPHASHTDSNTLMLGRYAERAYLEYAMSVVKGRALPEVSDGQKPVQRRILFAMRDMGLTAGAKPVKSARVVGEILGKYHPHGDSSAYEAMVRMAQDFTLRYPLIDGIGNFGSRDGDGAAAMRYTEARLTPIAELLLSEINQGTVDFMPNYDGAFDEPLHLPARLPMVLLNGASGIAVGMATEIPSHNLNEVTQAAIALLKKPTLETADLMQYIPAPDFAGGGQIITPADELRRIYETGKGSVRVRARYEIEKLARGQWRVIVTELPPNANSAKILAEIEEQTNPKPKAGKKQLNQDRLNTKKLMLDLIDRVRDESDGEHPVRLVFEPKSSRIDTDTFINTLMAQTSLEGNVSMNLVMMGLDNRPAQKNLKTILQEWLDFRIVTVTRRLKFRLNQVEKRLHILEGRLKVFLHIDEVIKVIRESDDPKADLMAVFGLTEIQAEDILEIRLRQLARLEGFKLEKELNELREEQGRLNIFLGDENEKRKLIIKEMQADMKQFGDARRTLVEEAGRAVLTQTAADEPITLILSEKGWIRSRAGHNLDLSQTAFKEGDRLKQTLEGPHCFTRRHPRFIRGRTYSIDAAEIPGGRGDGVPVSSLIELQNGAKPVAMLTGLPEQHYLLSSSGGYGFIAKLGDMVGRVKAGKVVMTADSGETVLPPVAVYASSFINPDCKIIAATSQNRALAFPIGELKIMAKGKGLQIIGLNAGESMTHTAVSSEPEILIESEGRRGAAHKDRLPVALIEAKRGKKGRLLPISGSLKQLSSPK
Briefly: Topoisomerase IV-catalyzed DNA decatenation, ParC S87N/E91G. In kind it is biochemical.

The target of assay [4] is WT N. gonorrhoeae topoisomerase IV (Neisseria gonorrhoeae, UniProt P48374). Nature of the assay: Topoisomerase IV-catalyzed DNA decatenation, WT. The assay is classed as biochemical. As to the method: DNA decatenation assays were based on previously published protocols by Anderson et al.[79] and Aldred et al.[30] Assays contained 10 nM WT, 20 nM ParC^S87N, 35 nM ParC^E91G, or 35 nM ParC^S87N/E91GN. gonorrhoeae topoisomerase IV, 5 nM kDNA, and 1 mM ATP in 20 μL of 40 mM HEPES-KOH (pH 7.6), 25 mM NaCl, 100 mM KGlu, and 10 mM Mg(OAc)2. Assay mixtures were incubated at 37 °C for 10 min with WT, 15 min with ParC^S87N, and 30 min with ParC^E91G and ParC^S87N/E91GN. gonorrhoeae topoisomerase IV, which represents the minimum time required to completely decatenate the kDNA in the absence of a drug. Reactions were stopped, subjected to electrophoresis, and visualized as described for gyrase-catalyzed DNA supercoiling.

For assay [5], the target named is T3, ParC^E91G N. gonorrhoeae topoisomerase IV (Neisseria gonorrhoeae, UniProt P48374, E91G).
T3 sequence (P48374 1-768 E91G): T2 sequence (P48374 1-768 S87N/E91G)
Nature of the assay: Topoisomerase IV-catalyzed DNA decatenation, ParC E91G. The assay is classed as biochemical.

Assay [6] addresses T4, ParC^S87N N. gonorrhoeae topoisomerase IV (Neisseria gonorrhoeae, UniProt P48374, S87N).
T4 sequence (P48374 1-768 S87N): T2 sequence (P48374 1-768 S87N/E91G)
Nature of the assay: Topoisomerase IV-catalyzed DNA decatenation, ParC S87N. The assay is classed as biochemical.

WT N. gonorrhoeae gyrase, sequence (P48371 whole entry): as the sequence (P48371 whole entry, looked up, stated change not applied) above
WT N. gonorrhoeae gyrase, sequence (P22118 whole entry): as the sequence (P22118 whole entry, stated change not applied) above

On to `Cc1c(N2CC[C@@H](CN)C2)c(F)cc2c(=O)n(N)c(=O)n(C3CC3)c12` [8-Me-2,4-QD, 3-Amino-7-[(3S)-3-(aminomethyl)-1-pyrrolidinyl]-1-cyclopropyl-6-fluoro-8-methyl-2,4(1H,3H)-quinazolinedione], for which, in assay [1], the “Max % DSB” value is reported as 28.9%. Also, the IC50 in assay [2] was determined as 19.7 µM.

As to `O=C(O)c1cn(C2CC2)c2cc(N3CCNCC3)c(F)cc2c1=O` [Ciprofloxacin], the IC50 in assay [3] is over 500 µM; in assay [4], 13.7 µM; in assay [5], 301 ± 23.8 µM; in assay [6], 16.4 µM.
